The supplement of paper PMC12463676, “Small-molecule dissolution of stress granules by redox modulation benefits ALS models” (Nature Chemical Biology, 2025)

Legend:
lipoamide = compound: NC(=O)CCCCC1CCSS1 [lipoamide]; assay: thermal stability z-score vs DMSO; higher = more thermally stabilized by treatment; conditions: HeLa, lipoamide concentration 100 µM
Procedure: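 Cellular thermal proteome profiling in HeLa cells. Cells were treated with 100 µM lipoamide for 1 h, with or without 1 mM arsenate for a further 1 h, then heated to ten temperatures (37-66.3 °C), and soluble protein was quantified by TMT mass spectrometry relative to 0.1% DMSO controls. The thermal stability score (sum of log2 fold changes minus the abundance score) was transformed to a z-score; mean of n = 3 experiments.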

potassium arsenate = compound: O=[As]([O-])(O)O.[K+] [potassium arsenate]; assay: as above; conditions: HeLa; arsenate concentration 1 mM
Procedure: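 Cellular thermal proteome profiling in HeLa cells treated with 1 mM arsenate for 1 h (DMSO pretreatment), heated to ten temperatures (37-66.3 °C). Soluble protein was quantified by TMT mass spectrometry relative to DMSO controls; the thermal stability score was transformed to a z-score; mean of n = 3 experiments.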

[1] = arsenate co-treatment: 1 mM arsenate 1 h
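Also: each temperature applied for 3 min, abundance score taken as mean log2 fold change at the two lowest temperatures, z-score obtained by mean subtraction and division by SD.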

Sequence of UniProt Q9BTW9 (Q9BTW9 whole entry): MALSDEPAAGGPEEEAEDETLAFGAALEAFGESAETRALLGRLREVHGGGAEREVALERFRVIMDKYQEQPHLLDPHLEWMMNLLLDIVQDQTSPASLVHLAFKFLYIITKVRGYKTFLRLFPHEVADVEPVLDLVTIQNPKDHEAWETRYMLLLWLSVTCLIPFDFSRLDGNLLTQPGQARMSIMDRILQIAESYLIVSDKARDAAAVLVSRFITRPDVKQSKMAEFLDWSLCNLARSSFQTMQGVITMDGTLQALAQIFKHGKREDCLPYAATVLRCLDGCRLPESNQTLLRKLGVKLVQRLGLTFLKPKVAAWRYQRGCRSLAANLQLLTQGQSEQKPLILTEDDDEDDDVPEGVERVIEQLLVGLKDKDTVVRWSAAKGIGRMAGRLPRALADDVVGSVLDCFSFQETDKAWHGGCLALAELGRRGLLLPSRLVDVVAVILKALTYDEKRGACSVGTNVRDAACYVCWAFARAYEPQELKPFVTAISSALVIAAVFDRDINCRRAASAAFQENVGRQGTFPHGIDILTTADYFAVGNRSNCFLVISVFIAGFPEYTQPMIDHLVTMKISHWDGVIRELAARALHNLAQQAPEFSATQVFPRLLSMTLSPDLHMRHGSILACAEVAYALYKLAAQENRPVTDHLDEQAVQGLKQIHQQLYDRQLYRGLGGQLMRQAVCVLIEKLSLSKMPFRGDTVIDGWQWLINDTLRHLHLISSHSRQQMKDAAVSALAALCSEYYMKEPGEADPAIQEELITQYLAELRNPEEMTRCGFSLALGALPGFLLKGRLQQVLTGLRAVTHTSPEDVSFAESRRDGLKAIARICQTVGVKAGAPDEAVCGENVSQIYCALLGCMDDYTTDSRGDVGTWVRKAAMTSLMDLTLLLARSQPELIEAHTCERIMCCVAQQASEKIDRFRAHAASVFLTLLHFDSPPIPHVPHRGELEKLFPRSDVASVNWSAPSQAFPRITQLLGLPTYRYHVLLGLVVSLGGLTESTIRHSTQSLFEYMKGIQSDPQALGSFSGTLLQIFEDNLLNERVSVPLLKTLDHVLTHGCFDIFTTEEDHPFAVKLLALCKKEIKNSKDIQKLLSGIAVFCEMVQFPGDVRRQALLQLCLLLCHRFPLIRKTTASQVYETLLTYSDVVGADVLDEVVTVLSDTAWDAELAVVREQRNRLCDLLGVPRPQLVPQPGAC
Sequence of UniProt Q9BU76 (Q9BU76 whole entry): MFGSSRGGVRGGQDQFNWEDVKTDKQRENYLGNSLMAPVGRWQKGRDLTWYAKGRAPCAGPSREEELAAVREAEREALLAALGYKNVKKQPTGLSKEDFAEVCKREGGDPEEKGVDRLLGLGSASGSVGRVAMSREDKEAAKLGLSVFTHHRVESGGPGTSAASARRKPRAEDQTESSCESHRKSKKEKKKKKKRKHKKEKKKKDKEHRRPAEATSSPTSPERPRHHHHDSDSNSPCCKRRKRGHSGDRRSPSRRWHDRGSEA
Sequence of UniProt Q9H267 (Q9H267 whole entry): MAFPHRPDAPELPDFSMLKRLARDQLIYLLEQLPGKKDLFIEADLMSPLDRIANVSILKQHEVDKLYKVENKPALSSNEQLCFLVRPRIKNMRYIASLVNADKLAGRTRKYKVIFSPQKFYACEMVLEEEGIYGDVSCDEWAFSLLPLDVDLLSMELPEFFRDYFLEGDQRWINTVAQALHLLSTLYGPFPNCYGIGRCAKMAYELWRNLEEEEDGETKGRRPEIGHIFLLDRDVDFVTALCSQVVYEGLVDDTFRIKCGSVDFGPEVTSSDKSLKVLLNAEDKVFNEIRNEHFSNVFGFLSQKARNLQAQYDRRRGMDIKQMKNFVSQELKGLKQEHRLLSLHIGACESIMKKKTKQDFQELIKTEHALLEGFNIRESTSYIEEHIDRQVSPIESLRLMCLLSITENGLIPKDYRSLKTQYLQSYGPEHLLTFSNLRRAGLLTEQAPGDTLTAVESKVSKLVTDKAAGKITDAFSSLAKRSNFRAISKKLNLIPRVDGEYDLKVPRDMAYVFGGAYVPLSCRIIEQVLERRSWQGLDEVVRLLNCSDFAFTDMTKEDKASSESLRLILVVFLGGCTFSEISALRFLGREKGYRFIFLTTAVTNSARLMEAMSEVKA
Sequence of UniProt Q9H920 (Q9H920 whole entry): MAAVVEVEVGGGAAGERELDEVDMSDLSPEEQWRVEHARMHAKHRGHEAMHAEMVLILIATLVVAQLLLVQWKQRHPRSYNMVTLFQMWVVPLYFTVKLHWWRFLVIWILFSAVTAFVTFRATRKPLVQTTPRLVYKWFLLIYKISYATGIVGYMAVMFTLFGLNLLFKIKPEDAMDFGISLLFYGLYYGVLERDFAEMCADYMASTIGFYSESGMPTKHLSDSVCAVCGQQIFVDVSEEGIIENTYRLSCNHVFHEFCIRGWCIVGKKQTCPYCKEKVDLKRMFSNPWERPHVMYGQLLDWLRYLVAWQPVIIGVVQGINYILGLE
Sequence of UniProt P29373 (P29373 whole entry): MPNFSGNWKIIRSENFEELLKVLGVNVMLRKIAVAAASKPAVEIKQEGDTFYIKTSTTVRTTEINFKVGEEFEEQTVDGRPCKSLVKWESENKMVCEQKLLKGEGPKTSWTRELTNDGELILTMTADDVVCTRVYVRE
Sequence of UniProt O43598 (O43598 whole entry): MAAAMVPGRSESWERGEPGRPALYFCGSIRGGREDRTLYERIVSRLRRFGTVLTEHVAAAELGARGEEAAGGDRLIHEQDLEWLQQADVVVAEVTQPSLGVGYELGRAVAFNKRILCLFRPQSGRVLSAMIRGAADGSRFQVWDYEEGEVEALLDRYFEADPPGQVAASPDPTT
Sequence of UniProt O43293 (O43293 whole entry, looked up): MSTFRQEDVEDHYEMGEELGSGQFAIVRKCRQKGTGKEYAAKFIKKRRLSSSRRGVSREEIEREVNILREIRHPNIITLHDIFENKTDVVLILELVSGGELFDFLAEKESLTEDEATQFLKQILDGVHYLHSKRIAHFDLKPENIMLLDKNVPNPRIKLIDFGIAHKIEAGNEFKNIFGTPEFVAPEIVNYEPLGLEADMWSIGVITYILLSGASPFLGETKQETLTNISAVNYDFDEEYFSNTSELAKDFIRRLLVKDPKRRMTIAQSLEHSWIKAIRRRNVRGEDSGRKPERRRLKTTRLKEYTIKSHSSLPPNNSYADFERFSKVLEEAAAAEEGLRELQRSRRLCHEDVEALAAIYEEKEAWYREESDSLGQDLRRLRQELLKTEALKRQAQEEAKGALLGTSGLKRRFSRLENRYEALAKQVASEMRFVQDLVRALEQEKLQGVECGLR
Sequence of UniProt Q53FA7 (Q53FA7 whole entry): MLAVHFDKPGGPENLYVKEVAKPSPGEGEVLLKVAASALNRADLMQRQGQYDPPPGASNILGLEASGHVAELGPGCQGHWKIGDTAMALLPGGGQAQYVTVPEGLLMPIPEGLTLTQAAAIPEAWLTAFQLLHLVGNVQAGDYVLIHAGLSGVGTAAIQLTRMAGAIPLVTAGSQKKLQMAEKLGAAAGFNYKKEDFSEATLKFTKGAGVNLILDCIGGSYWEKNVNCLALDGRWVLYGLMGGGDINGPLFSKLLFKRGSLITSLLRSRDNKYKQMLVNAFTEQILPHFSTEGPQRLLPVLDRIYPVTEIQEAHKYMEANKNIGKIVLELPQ
Sequence of UniProt Q29RF7 (Q29RF7 whole entry): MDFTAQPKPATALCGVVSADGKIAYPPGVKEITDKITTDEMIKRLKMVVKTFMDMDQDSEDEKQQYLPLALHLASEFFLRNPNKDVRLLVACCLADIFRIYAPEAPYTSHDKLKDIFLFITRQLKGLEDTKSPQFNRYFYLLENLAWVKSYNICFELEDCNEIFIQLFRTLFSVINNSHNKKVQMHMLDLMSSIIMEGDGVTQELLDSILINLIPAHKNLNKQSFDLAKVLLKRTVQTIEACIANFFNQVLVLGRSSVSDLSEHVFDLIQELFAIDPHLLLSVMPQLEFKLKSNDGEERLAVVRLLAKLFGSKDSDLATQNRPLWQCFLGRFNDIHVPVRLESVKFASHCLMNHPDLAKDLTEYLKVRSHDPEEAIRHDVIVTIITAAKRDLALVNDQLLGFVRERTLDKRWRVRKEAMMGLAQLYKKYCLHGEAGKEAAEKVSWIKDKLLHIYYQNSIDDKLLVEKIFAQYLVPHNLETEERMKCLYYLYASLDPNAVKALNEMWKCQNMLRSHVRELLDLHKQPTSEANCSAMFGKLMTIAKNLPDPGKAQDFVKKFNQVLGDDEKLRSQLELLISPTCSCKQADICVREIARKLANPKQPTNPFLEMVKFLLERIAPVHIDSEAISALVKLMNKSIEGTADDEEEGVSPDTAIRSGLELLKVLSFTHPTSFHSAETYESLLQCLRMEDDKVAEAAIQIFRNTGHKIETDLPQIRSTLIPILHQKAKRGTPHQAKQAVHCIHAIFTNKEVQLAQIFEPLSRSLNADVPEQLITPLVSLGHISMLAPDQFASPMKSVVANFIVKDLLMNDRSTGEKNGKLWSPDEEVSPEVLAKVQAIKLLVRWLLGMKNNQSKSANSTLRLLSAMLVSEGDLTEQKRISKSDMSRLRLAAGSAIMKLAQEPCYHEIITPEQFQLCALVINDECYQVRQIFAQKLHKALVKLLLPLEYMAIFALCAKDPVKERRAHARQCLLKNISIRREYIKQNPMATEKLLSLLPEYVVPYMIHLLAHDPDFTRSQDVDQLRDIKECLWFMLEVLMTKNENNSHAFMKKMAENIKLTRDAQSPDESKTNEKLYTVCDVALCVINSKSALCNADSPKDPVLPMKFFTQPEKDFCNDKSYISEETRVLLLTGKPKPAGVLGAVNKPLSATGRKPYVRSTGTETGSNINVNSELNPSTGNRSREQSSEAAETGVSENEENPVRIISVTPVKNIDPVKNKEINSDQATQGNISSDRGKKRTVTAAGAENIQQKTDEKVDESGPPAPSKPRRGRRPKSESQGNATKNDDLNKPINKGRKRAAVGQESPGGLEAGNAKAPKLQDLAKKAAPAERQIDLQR
Sequence of UniProt O76095 (O76095 whole entry): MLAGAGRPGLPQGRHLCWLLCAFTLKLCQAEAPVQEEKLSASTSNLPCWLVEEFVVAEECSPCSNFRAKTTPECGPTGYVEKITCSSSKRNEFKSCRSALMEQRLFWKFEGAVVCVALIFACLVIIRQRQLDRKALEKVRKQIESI

Target | thermal stability z-score (lipoamide; [1]) | thermal stability z-score (lipoamide; arsenate co-treatment: none) | thermal stability z-score (potassium arsenate)
TMEM245 (UniProt Q9H330) | 1.28 | 0.28 | 1.86
CKMT1A (UniProt P12532) | 0.957 | 0.965 | 0.795
FUK (UniProt Q8N0W3) | 0.775 | 0.461 | 0.0734
VPS33B (UniProt Q9H267) | -0.333 | 0.0129 | 0.205
CRABP2 (UniProt P29373) | 0.359 | 1.24 | 0.378
MED18 (UniProt Q9BUE0) | -0.0409 | 0.0953 | -0.382
RNF121 (UniProt Q9H920) | -1 | -0.693 | -1.09
PGP (UniProt A6NDG6) | 0.339 | -0.0409 | -0.245
EEF1G (UniProt P26641) | 0.0213 | 0.149 | 0.215
PCID2 (UniProt Q5JVF3) | -0.297 | 0.217 | 0.809
DHRS7 (UniProt Q9Y394) | -0.365 | -0.498 | 0.437
NPC2 (UniProt P61916) | 0.0993 | 0.738 | -0.391
CD63 (UniProt P08962) | 0.764 | 0.402 | 0.0332
RHBDD2 (UniProt Q6NTF9) | -0.424 | -0.384 | -0.574
NNMT (UniProt P40261) | 1.79 | 1.62 | 0.0978
TCERG1 (UniProt O14776) | 0.7 | 0.361 | -0.0887
C16ORF13 (UniProt Q96S19) | 0.306 | 0.154 | 0.536
MRPL57 (UniProt Q9BQC6) | 0.281 | 0.104 | 0.671
GOLIM4 (UniProt O00461) | -0.589 | -0.17 | 0.283
C17ORF62 (UniProt Q9BQA9) | 0.898 | 0.761 | 1.37
DIP2A (UniProt Q14689) | 0.82 | -0.0406 | -0.205
ITGA2 (UniProt P17301) | 0.217 | 0.235 | 0.278
UTP6 (UniProt Q9NYH9) | 0.13 | -0.00953 | 0.272
KDM4A (UniProt O75164) | -0.16 | -0.11 | -0.178
TUBGCP6 (UniProt Q96RT7) | 0.0893 | 0.0666 | 0.0497
PSMD7 (UniProt P51665) | -0.802 | -0.0777 | -0.475
HSP90AA1 (UniProt P07900) | 0.0337 | 0.301 | 0.428
G3BP2 (UniProt Q9UN86) | -0.0281 | -0.411 | 0.561

Target | thermal stability z-score (lipoamide; [1]) | thermal stability z-score (lipoamide; arsenate co-treatment: none) | thermal stability z-score (potassium arsenate)
CTNNA1 (UniProt P35221) | 0.319 | 0.2 | -0.4
GLYR1 (UniProt Q49A26) | 0.0933 | -0.0315 | -0.145
MIB1 (UniProt Q86YT6) | -0.621 | -0.586 | -1.05
ORC4 (UniProt O43929) | -0.121 | -0.0936 | -0.113
SMARCA4 (UniProt P51532) | 0.212 | 0.272 | -0.673
CDKN2A | 0.99 | 1.64 | 0.466
TBCD (UniProt Q9BTW9) | -0.558 | -0.301 | 0.705
DNPH1 (UniProt O43598) | 0.0889 | -0.11 | -0.0373
TRMT1 (UniProt Q9NXH9) | 0.222 | -0.116 | -0.423
HSPB1 (UniProt P04792) | -1.04 | -0.459 | 0.246
DCP2 (UniProt Q8IU60) | -0.0416 | 0.195 | -0.203
SPATA20 (UniProt Q8TB22) | 0.172 | 0.136 | -0.121
NT5C (UniProt Q8TCD5) | -0.442 | -0.516 | -0.982
EXOC3 (UniProt O60645) | -0.653 | -0.0663 | 0.149
KIAA0391 (UniProt O15091) | -0.0274 | 0.14 | -0.0848
TICAM1 (UniProt Q8IUC6) | -0.187 | -0.204 | -0.325
HMGCS1 (UniProt Q01581) | 1.34 | 0.0808 | 0.164
IQGAP3 (UniProt Q86VI3) | -0.157 | -0.0447 | -0.171
ZNF579 (UniProt Q8NAF0) | -0.34 | -0.434 | 0.155
JTB (UniProt O76095) | 0.634 | 0.0713 | 0.688
MMTAG2 (UniProt Q9BU76) | 2.29 | 0.684 | 0.188
CTU1 (UniProt Q7Z7A3) | -0.119 | -0.0524 | -0.16
PDS5A (UniProt Q29RF7) | 0.543 | 0.408 | -0.428
GOLGB1 (UniProt Q14789) | -0.345 | -0.0596 | 0.886
TP53I3 (UniProt Q53FA7) | 0.135 | -0.155 | -0.359
DAPK3 (UniProt O43293) | -0.0576 | -0.0876 | 0.228
MTMR14 (UniProt Q8NCE2) | -1.39 | -0.656 | -0.829
